Measurements reported in ChEMBL document CHEMBL4699610, “Synthesis and biological evaluation of anti-tubercular activity of Schiff bases of 2-Amino thiazoles” (2020).
≈ marks a conversion by molar mass, not a printed value.

These compounds were tested on Mycobacterium tuberculosis (assay: Antitubercular activity against Mycobacterium tuberculosis H37Rv assessed as bacterial growth inhibition by MABA relative to control).
Format: functional
For `O=C(Nc1ccc(-c2csc(N/C=C\c3ccc(F)cc3)n2)cc1)c1ccccc1`, the MIC was 12.5 µg/mL (≈ 30.1 µM).
Work on `CO[C@H]1/C=C/O[C@@]2(C)Oc3c(C)c(O)c4c(O)c(c(/C=N/N5CCN(C)CC5)c(O)c4c3C2=O)NC(=O)/C(C)=C\C=C\[C@H](C)[C@H](O)[C@@H](C)[C@@H](O)[C@@H](C)[C@H](OC(C)=O)[C@@H]1C` [RIFAMPIN] yielded an MIC of 0.8 µg/mL (≈ 0.972 µM).
`COc1cc(/C=C\Nc2nc(-c3ccc(N4C(=O)CCC4=O)cc3)cs2)cc(OC)c1OC` gave an MIC of 25 µg/mL (≈ 53.7 µM).
With `O=C1c2ccccc2C(=O)N1c1ccc(-c2csc(N/C=C\c3ccccc3[N+](=O)[O-])n2)cc1` the MIC was 25 µg/mL (≈ 53.4 µM).
Work on `CN[C@@H]1[C@H](O[C@H]2[C@H](O[C@H]3[C@H](O)[C@@H](O)[C@H](N=C(N)N)[C@@H](O)[C@@H]3N=C(N)N)O[C@@H](C)[C@]2(O)C=O)O[C@@H](CO)[C@H](O)[C@H]1O` [STREPTOMYCIN] yielded an MIC of 0.8 µg/mL (≈ 1.38 µM).
In the case of `O=C1CCC(=O)N1c1ccc(-c2csc(N/C=C\c3ccccc3[N+](=O)[O-])n2)cc1`, the MIC is reported as 100 µg/mL (≈ 238 µM).
`Nc1nc(-c2ccc(NC(=O)c3ccccc3)cc2)cs1` showed an MIC of 50 µg/mL (≈ 169 µM).
Compound `NC(=O)c1cnccn1` [PYRAZINAMIDE] has an MIC of 3.12 µg/mL (≈ 25.4 µM).
`COc1cc(/C=C\Nc2nc(-c3ccc(N4C(=O)c5ccccc5C4=O)cc3)cs2)cc(OC)c1OC` was tested, and the MIC was 6.25 µg/mL (≈ 12.2 µM).
In the case of `O=C1CCC(=O)N1c1ccc(-c2csc(N/C=C\c3cccc(Cl)c3)n2)cc1`, the MIC is reported as 25 µg/mL (≈ 61 µM).
Compound `O=C1CCC(=O)N1c1ccc(-c2csc(N/C=C\c3ccc(F)cc3)n2)cc1` has an MIC of 12.5 µg/mL (≈ 31.8 µM).
`O=C(Nc1ccc(-c2csc(N/C=C\c3ccccc3[N+](=O)[O-])n2)cc1)c1ccccc1` showed an MIC of 6.25 µg/mL (≈ 14.1 µM).
Compound `COc1cc(/C=C\Nc2nc(-c3ccc(NC(=O)c4ccccc4)cc3)cs2)cc(OC)c1OC` has an MIC of 25 µg/mL (≈ 51.3 µM).
`CC[C@@H](CO)NCCN[C@@H](CC)CO` [ETHAMBUTOL] showed an MIC of 3.2 µg/mL (≈ 15.7 µM).
`Nc1nc(-c2ccc(N3C(=O)c4ccccc4C3=O)cc2)cs1` showed an MIC of 12.5 µg/mL (≈ 38.9 µM).
`O=C1CCC(=O)N1c1ccc(-c2csc(N/C=C\c3ccc(O)cc3)n2)cc1` was tested, and the MIC was 100 µg/mL (≈ 255 µM).
Compound `O=C(O)c1cn(C2CC2)c2cc(N3CCNCC3)c(F)cc2c1=O` [CIPROFLOXACIN] has an MIC of 3.12 µg/mL (≈ 9.43 µM).
Work on `Nc1nc(-c2ccc(N3C(=O)CCC3=O)cc2)cs1` yielded an MIC of 6.25 µg/mL (≈ 22.9 µM).
`NNC(=O)c1ccncc1` [ISONIAZID] showed an MIC of 1.6 µg/mL (≈ 11.7 µM).
`O=C(Nc1ccc(-c2csc(N/C=C\c3cccc(Cl)c3)n2)cc1)c1ccccc1` gave an MIC of 25 µg/mL (≈ 57.9 µM).
For `O=C(Nc1ccc(-c2csc(N/C=C\c3ccc(O)cc3)n2)cc1)c1ccccc1`, the MIC was 6.25 µg/mL (≈ 15.1 µM).
